In patent US20140120232A1, “ACID TASTE/ACID SMELL-REDUCING AGENT” (T. HASEGAWA CO., LTD., priority 2011, published 2014):

Tests used:
[1] = Sensory evaluation of dressing containing the agent; settings: ten panels
Description: (§1) Sensory evaluation of each drink was carried out by ten panels. […] The piercing aroma characteristic to aldehydes is a characteristic aroma common to every aldehyde and refers to an irritant off-smell giving an image of deteriorated oils and fats, soap, metals, Houttuynia cordata, etc. The judgment of smell was performed by comparing the effects at different concentrations of the acid taste and/or acid smell-reducing agent, and a concentration giving the highest acid taste/acid smell quality was selected.
A separation-type dressing base material (100 g) was prepared by mixing 20 g of edible vinegar, 35 g of vegetable oils and fats, and 45 g of an aqueous solution containing spices and extracts with stirring. To the resulting mixture was added (Z,Z)-4,7-tridecadienal as the acid taste and/or acid smell-reducing agent of the present invention in concentrations shown in the following Table 10 to give dressings containing the agent, followed by sensory evaluation as in Example 1.

[2] = Sensory evaluation of mayonnaise containing the agent; settings: ten panels
Description: as §1
A mayonnaise base material (100 g) was prepared by mixing 12 g of edible vinegar, 75 g of vegetable oils and fats, and 13 g of an aqueous solution containing egg yolk and spices. To the resulting mixture was added (Z,Z)-4,7-tridecadienal as the acid taste and/or acid smell-reducing agent of the present invention in concentrations shown in the following Table 11 to give mayonnaise containing the agent, followed by sensory evaluation as in Example 1.

CCCCC/C=C\C/C=C\CCC=O [(Z,Z)-4,7-tridecadienal]
A: number of panels, acid taste/acid smell extreme and cause irritation ([1]; 0.005 ppt): 10
B: number of panels, acid taste/acid smell slightly strong and slightly cause irritation ([1]; 0.005 ppt): 0
C: number of panels, acid taste/acid smell slightly unpleasant ([1]; 0.005 ppt): 0
Flavor judgment: number of panels who judged acid taste/acid smell quality the highest ([1]; 0.005 ppt): 0
N: number of panels, irritation of acid reduced to give a mild acid taste ([1]; 0.005 ppt): 0
X: number of panels, acid taste reduced but piercing odor characteristic to aldehydes unpleasant ([1]; 0.005 ppt): 0
A: number of panels, acid taste/acid smell extreme and cause irritation ([1]; 0.02 ppt): 9
B: number of panels, acid taste/acid smell slightly strong and slightly cause irritation ([1]; 0.02 ppt): 1
C: number of panels, acid taste/acid smell slightly unpleasant ([1]; 0.02 ppt): 0
Flavor judgment: number of panels who judged acid taste/acid smell quality the highest ([1]; 0.02 ppt): 0
N: number of panels, irritation of acid reduced to give a mild acid taste ([1]; 0.02 ppt): 0
X: number of panels, acid taste reduced but piercing odor characteristic to aldehydes unpleasant ([1]; 0.02 ppt): 0
A: number of panels, acid taste/acid smell extreme and cause irritation ([1]; 0.1 ppt): 6
B: number of panels, acid taste/acid smell slightly strong and slightly cause irritation ([1]; 0.1 ppt): 4
C: number of panels, acid taste/acid smell slightly unpleasant ([1]; 0.1 ppt): 0
Flavor judgment: number of panels who judged acid taste/acid smell quality the highest ([1]; 0.1 ppt): 0
N: number of panels, irritation of acid reduced to give a mild acid taste ([1]; 0.1 ppt): 0
X: number of panels, acid taste reduced but piercing odor characteristic to aldehydes unpleasant ([1]; 0.1 ppt): 0
A: number of panels, acid taste/acid smell extreme and cause irritation ([1]; 0.2 ppt): 4
B: number of panels, acid taste/acid smell slightly strong and slightly cause irritation ([1]; 0.2 ppt): 4
C: number of panels, acid taste/acid smell slightly unpleasant ([1]; 0.2 ppt): 2
Flavor judgment: number of panels who judged acid taste/acid smell quality the highest ([1]; 0.2 ppt): 0
N: number of panels, irritation of acid reduced to give a mild acid taste ([1]; 0.2 ppt): 0
X: number of panels, acid taste reduced but piercing odor characteristic to aldehydes unpleasant ([1]; 0.2 ppt): 0
A: number of panels, acid taste/acid smell extreme and cause irritation ([1]; 0.5 ppt): 1
B: number of panels, acid taste/acid smell slightly strong and slightly cause irritation ([1]; 0.5 ppt): 2
C: number of panels, acid taste/acid smell slightly unpleasant ([1]; 0.5 ppt): 2
Flavor judgment: number of panels who judged acid taste/acid smell quality the highest ([1]; 0.5 ppt): 1
N: number of panels, irritation of acid reduced to give a mild acid taste ([1]; 0.5 ppt): 5
X: number of panels, acid taste reduced but piercing odor characteristic to aldehydes unpleasant ([1]; 0.5 ppt): 0
A: number of panels, acid taste/acid smell extreme and cause irritation ([1]; 1 ppb): 0
B: number of panels, acid taste/acid smell slightly strong and slightly cause irritation ([1]; 1 ppb): 0
C: number of panels, acid taste/acid smell slightly unpleasant ([1]; 1 ppb): 3
Flavor judgment: number of panels who judged acid taste/acid smell quality the highest ([1]; 1 ppb): 0
N: number of panels, irritation of acid reduced to give a mild acid taste ([1]; 1 ppb): 3
X: number of panels, acid taste reduced but piercing odor characteristic to aldehydes unpleasant ([1]; 1 ppb): 4
A: number of panels, acid taste/acid smell extreme and cause irritation ([1]; 1 ppt): 0
B: number of panels, acid taste/acid smell slightly strong and slightly cause irritation ([1]; 1 ppt): 1
C: number of panels, acid taste/acid smell slightly unpleasant ([1]; 1 ppt): 3
Flavor judgment: number of panels who judged acid taste/acid smell quality the highest ([1]; 1 ppt): 1
N: number of panels, irritation of acid reduced to give a mild acid taste ([1]; 1 ppt): 6
X: number of panels, acid taste reduced but piercing odor characteristic to aldehydes unpleasant ([1]; 1 ppt): 0
A: number of panels, acid taste/acid smell extreme and cause irritation ([1]; 5 ppt): 0
B: number of panels, acid taste/acid smell slightly strong and slightly cause irritation ([1]; 5 ppt): 0
C: number of panels, acid taste/acid smell slightly unpleasant ([1]; 5 ppt): 3
Flavor judgment: number of panels who judged acid taste/acid smell quality the highest ([1]; 5 ppt): 4
N: number of panels, irritation of acid reduced to give a mild acid taste ([1]; 5 ppt): 7
X: number of panels, acid taste reduced but piercing odor characteristic to aldehydes unpleasant ([1]; 5 ppt): 0
A: number of panels, acid taste/acid smell extreme and cause irritation ([1]; 10 ppb): 0
B: number of panels, acid taste/acid smell slightly strong and slightly cause irritation ([1]; 10 ppb): 0
C: number of panels, acid taste/acid smell slightly unpleasant ([1]; 10 ppb): 1
Flavor judgment: number of panels who judged acid taste/acid smell quality the highest ([1]; 10 ppb): 0
N: number of panels, irritation of acid reduced to give a mild acid taste ([1]; 10 ppb): 2
X: number of panels, acid taste reduced but piercing odor characteristic to aldehydes unpleasant ([1]; 10 ppb): 7
A: number of panels, acid taste/acid smell extreme and cause irritation ([1]; 20 ppt): 0
B: number of panels, acid taste/acid smell slightly strong and slightly cause irritation ([1]; 20 ppt): 0
C: number of panels, acid taste/acid smell slightly unpleasant ([1]; 20 ppt): 3
Flavor judgment: number of panels who judged acid taste/acid smell quality the highest ([1]; 20 ppt): 4
N: number of panels, irritation of acid reduced to give a mild acid taste ([1]; 20 ppt): 7
X: number of panels, acid taste reduced but piercing odor characteristic to aldehydes unpleasant ([1]; 20 ppt): 0
A: number of panels, acid taste/acid smell extreme and cause irritation ([1]; 50 ppb): 0
B: number of panels, acid taste/acid smell slightly strong and slightly cause irritation ([1]; 50 ppb): 0
C: number of panels, acid taste/acid smell slightly unpleasant ([1]; 50 ppb): 0
Flavor judgment: number of panels who judged acid taste/acid smell quality the highest ([1]; 50 ppb): 0
N: number of panels, irritation of acid reduced to give a mild acid taste ([1]; 50 ppb): 2
X: number of panels, acid taste reduced but piercing odor characteristic to aldehydes unpleasant ([1]; 50 ppb): 8
A: number of panels, acid taste/acid smell extreme and cause irritation ([1]; 100 ppt): 0
B: number of panels, acid taste/acid smell slightly strong and slightly cause irritation ([1]; 100 ppt): 1
C: number of panels, acid taste/acid smell slightly unpleasant ([1]; 100 ppt): 3
Flavor judgment: number of panels who judged acid taste/acid smell quality the highest ([1]; 100 ppt): 0
N: number of panels, irritation of acid reduced to give a mild acid taste ([1]; 100 ppt): 4
X: number of panels, acid taste reduced but piercing odor characteristic to aldehydes unpleasant ([1]; 100 ppt): 2
A: number of panels, acid taste/acid smell extreme and cause irritation ([1]; 500 ppt): 0
B: number of panels, acid taste/acid smell slightly strong and slightly cause irritation ([1]; 500 ppt): 0
C: number of panels, acid taste/acid smell slightly unpleasant ([1]; 500 ppt): 4
Flavor judgment: number of panels who judged acid taste/acid smell quality the highest ([1]; 500 ppt): 0
N: number of panels, irritation of acid reduced to give a mild acid taste ([1]; 500 ppt): 4
X: number of panels, acid taste reduced but piercing odor characteristic to aldehydes unpleasant ([1]; 500 ppt): 2
A: number of panels, acid taste/acid smell extreme and cause irritation ([2]; 0.005 ppt): 10
B: number of panels, acid taste/acid smell slightly strong and slightly cause irritation ([2]; 0.005 ppt): 0
C: number of panels, acid taste/acid smell slightly unpleasant ([2]; 0.005 ppt): 0
Flavor judgment: number of panels who judged acid taste/acid smell quality the highest ([2]; 0.005 ppt): 0
N: number of panels, irritation of acid reduced to give a mild acid taste ([2]; 0.005 ppt): 0
X: number of panels, acid taste reduced but piercing odor characteristic to aldehydes unpleasant ([2]; 0.005 ppt): 0
A: number of panels, acid taste/acid smell extreme and cause irritation ([2]; 0.02 ppt): 8
B: number of panels, acid taste/acid smell slightly strong and slightly cause irritation ([2]; 0.02 ppt): 2
C: number of panels, acid taste/acid smell slightly unpleasant ([2]; 0.02 ppt): 0
Flavor judgment: number of panels who judged acid taste/acid smell quality the highest ([2]; 0.02 ppt): 0
N: number of panels, irritation of acid reduced to give a mild acid taste ([2]; 0.02 ppt): 0
X: number of panels, acid taste reduced but piercing odor characteristic to aldehydes unpleasant ([2]; 0.02 ppt): 0
A: number of panels, acid taste/acid smell extreme and cause irritation ([2]; 0.1 ppt): 7
B: number of panels, acid taste/acid smell slightly strong and slightly cause irritation ([2]; 0.1 ppt): 2
C: number of panels, acid taste/acid smell slightly unpleasant ([2]; 0.1 ppt): 1
Flavor judgment: number of panels who judged acid taste/acid smell quality the highest ([2]; 0.1 ppt): 0
N: number of panels, irritation of acid reduced to give a mild acid taste ([2]; 0.1 ppt): 0
X: number of panels, acid taste reduced but piercing odor characteristic to aldehydes unpleasant ([2]; 0.1 ppt): 0
A: number of panels, acid taste/acid smell extreme and cause irritation ([2]; 0.2 ppt): 3
B: number of panels, acid taste/acid smell slightly strong and slightly cause irritation ([2]; 0.2 ppt): 4
C: number of panels, acid taste/acid smell slightly unpleasant ([2]; 0.2 ppt): 3
Flavor judgment: number of panels who judged acid taste/acid smell quality the highest ([2]; 0.2 ppt): 0
N: number of panels, irritation of acid reduced to give a mild acid taste ([2]; 0.2 ppt): 0
X: number of panels, acid taste reduced but piercing odor characteristic to aldehydes unpleasant ([2]; 0.2 ppt): 0
A: number of panels, acid taste/acid smell extreme and cause irritation ([2]; 0.5 ppt): 0
B: number of panels, acid taste/acid smell slightly strong and slightly cause irritation ([2]; 0.5 ppt): 2
C: number of panels, acid taste/acid smell slightly unpleasant ([2]; 0.5 ppt): 3
Flavor judgment: number of panels who judged acid taste/acid smell quality the highest ([2]; 0.5 ppt): 1
N: number of panels, irritation of acid reduced to give a mild acid taste ([2]; 0.5 ppt): 5
X: number of panels, acid taste reduced but piercing odor characteristic to aldehydes unpleasant ([2]; 0.5 ppt): 0
A: number of panels, acid taste/acid smell extreme and cause irritation ([2]; 1 ppb): 0
B: number of panels, acid taste/acid smell slightly strong and slightly cause irritation ([2]; 1 ppb): 0
C: number of panels, acid taste/acid smell slightly unpleasant ([2]; 1 ppb): 2
Flavor judgment: number of panels who judged acid taste/acid smell quality the highest ([2]; 1 ppb): 0
N: number of panels, irritation of acid reduced to give a mild acid taste ([2]; 1 ppb): 4
X: number of panels, acid taste reduced but piercing odor characteristic to aldehydes unpleasant ([2]; 1 ppb): 4
A: number of panels, acid taste/acid smell extreme and cause irritation ([2]; 1 ppt): 0
B: number of panels, acid taste/acid smell slightly strong and slightly cause irritation ([2]; 1 ppt): 2
C: number of panels, acid taste/acid smell slightly unpleasant ([2]; 1 ppt): 2
Flavor judgment: number of panels who judged acid taste/acid smell quality the highest ([2]; 1 ppt): 1
N: number of panels, irritation of acid reduced to give a mild acid taste ([2]; 1 ppt): 6
X: number of panels, acid taste reduced but piercing odor characteristic to aldehydes unpleasant ([2]; 1 ppt): 0
A: number of panels, acid taste/acid smell extreme and cause irritation ([2]; 5 ppt): 0
B: number of panels, acid taste/acid smell slightly strong and slightly cause irritation ([2]; 5 ppt): 0
C: number of panels, acid taste/acid smell slightly unpleasant ([2]; 5 ppt): 2
Flavor judgment: number of panels who judged acid taste/acid smell quality the highest ([2]; 5 ppt): 4
N: number of panels, irritation of acid reduced to give a mild acid taste ([2]; 5 ppt): 8
X: number of panels, acid taste reduced but piercing odor characteristic to aldehydes unpleasant ([2]; 5 ppt): 0
A: number of panels, acid taste/acid smell extreme and cause irritation ([2]; 10 ppb): 0
B: number of panels, acid taste/acid smell slightly strong and slightly cause irritation ([2]; 10 ppb): 0
C: number of panels, acid taste/acid smell slightly unpleasant ([2]; 10 ppb): 1
Flavor judgment: number of panels who judged acid taste/acid smell quality the highest ([2]; 10 ppb): 0
N: number of panels, irritation of acid reduced to give a mild acid taste ([2]; 10 ppb): 2
X: number of panels, acid taste reduced but piercing odor characteristic to aldehydes unpleasant ([2]; 10 ppb): 7
A: number of panels, acid taste/acid smell extreme and cause irritation ([2]; 20 ppt): 0
B: number of panels, acid taste/acid smell slightly strong and slightly cause irritation ([2]; 20 ppt): 0
C: number of panels, acid taste/acid smell slightly unpleasant ([2]; 20 ppt): 3
Flavor judgment: number of panels who judged acid taste/acid smell quality the highest ([2]; 20 ppt): 4
N: number of panels, irritation of acid reduced to give a mild acid taste ([2]; 20 ppt): 7
X: number of panels, acid taste reduced but piercing odor characteristic to aldehydes unpleasant ([2]; 20 ppt): 0
A: number of panels, acid taste/acid smell extreme and cause irritation ([2]; 50 ppb): 0
B: number of panels, acid taste/acid smell slightly strong and slightly cause irritation ([2]; 50 ppb): 0
C: number of panels, acid taste/acid smell slightly unpleasant ([2]; 50 ppb): 1
Flavor judgment: number of panels who judged acid taste/acid smell quality the highest ([2]; 50 ppb): 0
N: number of panels, irritation of acid reduced to give a mild acid taste ([2]; 50 ppb): 1
X: number of panels, acid taste reduced but piercing odor characteristic to aldehydes unpleasant ([2]; 50 ppb): 8
A: number of panels, acid taste/acid smell extreme and cause irritation ([2]; 100 ppt): 0
B: number of panels, acid taste/acid smell slightly strong and slightly cause irritation ([2]; 100 ppt): 1
C: number of panels, acid taste/acid smell slightly unpleasant ([2]; 100 ppt): 4
Flavor judgment: number of panels who judged acid taste/acid smell quality the highest ([2]; 100 ppt): 0
N: number of panels, irritation of acid reduced to give a mild acid taste ([2]; 100 ppt): 4
X: number of panels, acid taste reduced but piercing odor characteristic to aldehydes unpleasant ([2]; 100 ppt): 1
A: number of panels, acid taste/acid smell extreme and cause irritation ([2]; 500 ppt): 0
B: number of panels, acid taste/acid smell slightly strong and slightly cause irritation ([2]; 500 ppt): 0
C: number of panels, acid taste/acid smell slightly unpleasant ([2]; 500 ppt): 4
Flavor judgment: number of panels who judged acid taste/acid smell quality the highest ([2]; 500 ppt): 0
N: number of panels, irritation of acid reduced to give a mild acid taste ([2]; 500 ppt): 4
X: number of panels, acid taste reduced but piercing odor characteristic to aldehydes unpleasant ([2]; 500 ppt): 2
